# Assays:
# [1] = system: HEK293 cells overexpressing human a-syn (WT); assay: Cytotoxicity screen of lentiviral 7-mer peptide library, Alpha Syn (WT) cells under MG132; assay type: cell-based; conditions: for Reads 0 uM MG132 / Reads 10 UM MG132 / Reads 25 UM MG132: normalized Illumina peptide counts
# From the text: (§1) A screening system to discover candidate peptides to perturb endogenous PPIs based on libraries of short linear interaction motifs that mediate a large fraction (˜30%) of human PPIs (10-12) was recently developed. Here, a lentiviral library of 50,549 7-mer peptide motifs (13) on a green fluorescent protein (GFP) scaffold (FIG. 1A) was used. Cells in a pooled format were infected and the amino acid sequence of each peptide served as its own barcode. By using a low multiplicity of infection followed by puromycin selection, each infected cell expressed one unique GFP-peptide. Peptides that reduced a-syn-mediated cytotoxicity or a-syn oligomers in parallel (FIG. 1A), were screened for.
# (§2) To cause cytotoxicity relevant to PD, proteostatic stress in HEK293 cells was induced by inhibiting the proteasome with MG132 and inducing the overexpression of human a-syn (WT) from idiopathic PD in one screen and the more toxic A53T mutant from familial PD in a second screen. The combination of a-syn overexpression and pharmacological proteasome inhibition led to death of most cells, with only those that expressed a protective peptide surviving. By extracting genomic DNA from the surviving cells and amplifying the peptide coding sequences, the protective peptides (FIG. 1A) were identified.
# (§3) PCR primers that included the Illumina adaptor sequences were used to amplify peptide coding sequences recovered from selection and cell sorting. Results were demultiplexed, and peptide counts were tallied. After demultiplexing, only reads with an average quality Phred score of >30 were selected, and frequencies were calculated. Finally, the reads were then normalized to the total number of peptides read for that sample population, and a scalar factor was applied. In parallel, ˜25 individual colonies were Sanger sequenced to compare to the NGS data.
# (§4) Lentiviruses were made in a 15 cm dish format by transfecting packaging cells (293T) with a three-plasmid system as previously described. Viral transduction of HEK293T cells, tet-off split luciferase a-syn cells, tet-off parent cells, and SH-SY5Y cells were performed with a multiplicity of infection of 0.3 (MOI=0.3). Infected cells were selected in puromycin-containing medium to eliminate uninfected cells and three aliquots of cells were collected for sampling of the initial (TO) cell population. Cells were treated with MG132 at concentrations of 0 μM, 10 μM, 25 μM or 50 μM. For the cell viability screen, surviving cells were collected and gDNA was extracted for identification of peptide inhibitors of cell toxicity. For the inhibition of a-syn aggregation screen, split YFP-a-syn constructs were transfected following stable expression of the peptides. Cells were sorted based on their GFP fluorescence intensities with a FACSVantage SE cell sorter (BD Bioscience).
# (§5) Genomic DNA (gDNA) from peptide expressing cells at different time-points was extracted using QIAamp DNA Blood Mini Kit. PCR amplifications of peptides from gDNA in parallel with the lentiviral plasmid library (naïve library) were performed using indexed Illumina PCR primers to incorporate both the Illumina adapter sequences and indexing sequences. Each 50 μl reaction contained 3.2 μg of template, 2×PCR buffer, 2× enhancer solution, 300 μM each dNTP, 900 nM each of Adapter A (5′-[…]-[…]-3′) (SEQ ID NO: 42) and Adapter B (5′-[…]-[…]-3′) (SEQ ID NO: 43), 1 mM MgSO4, 3.75 units of Platinum Pfx polymerase, and water to 50 μl. The PCR reaction was performed by denaturing at 94° C. for 5 minutes, followed by cycling (94° C. for 30 seconds, 65° C. for 30 seconds, 68° C. for 30 seconds)×28 cycles, 68° C. for 5 minutes, then cooling to 4° C. The resulting 244 bp product was purified by electrophoresis in 2% agarose followed by gel extraction. Peptide libraries were quantified using Quant-It assay (Invitrogen) and pooled. […]
# [2] = system: a-syn oligomers in HEK293 cells; assay: Oligomers screen (split YFP-a-syn protein fragment complementation, FACS); assay type: cell-based, human; conditions: for Reads GFP High: FACS fraction GFP High; for Reads GFP Inter: FACS fraction GFP Inter; for Reads GFP Neg: FACS fraction GFP Neg
# From the text: To detect a-syn oligomers, a protein fragment complementation assay (PCA) of a-syn oligomerization in HEK293 cells (14) was used. In this assay, human A53T a-syn was fused to either the C- or N-terminal half of yellow fluorescent protein (YFP). No fluorescence is detectable while a-syn exists in monomers but, when a-syn oligomerizes, the two halves of YFP come in close enough proximity to form a functional, spontaneously fluorescent protein. […] By using fluorescence activated cell sorting (FACS), cells expressing Flag-tagged peptides that directly or indirectly interfered with a-syn oligomer formation were isolated and then the peptides were identified from genomic DNA (FIG. 1A). The screens yielded 10 hits (Table 1). The hit with the most reads (i.e., the most abundant) was the same peptide in all screens: IPIQLKA (SEQ ID NO: 1) (PDpep1) (Table 2). […] Lead peptide targets CHMP2B, a member of ESCRT-III
# as §3, §4
# Cells were harvested by trypsin treatment and centrifuged at 500×g for 5 minutes. The pellet was resuspended in ice-cold PBS and centrifuged again. The pellet was then resuspended at a concentration of 4×10^6 cells/ml in the sorting buffer, which is PBS containing 100 Kunitz Dnase l/ml, 10 μg/ml propidium iodide (Sigma) and 2% FBS. The sorting solution was also supplemented with either 10 μM forskolin, 100 μM 5,6-Dichlorobenzimidazole riboside (DRB, Sigma), 10 μM forskolin (Sigma) and 100 μM DRB or DMSO, as a control. The cells were then sent through a 40 μm filter to remove large clumps and loaded into either a FACScan Flow Cytometer (BD Bioscience) for cell analysis or a FACSVantage SE cell sorter (BD Bioscience) for cell sorting. The cells with positive propidium iodide staining (i.e., dead cells) were first eliminated from the analysis or sorting pool. For cell sorting, the desired population, either the most or least bright EGFP-positive cells, according to the purpose of the experiments (see Results), was sorted into either 15 ml conical tubes or 96-well plates, which both contained complete DMEM culture media.
# Genomic DNA (gDNA) from peptide expressing cells at different time-points was extracted using QIAamp DNA Blood Mini Kit. PCR amplifications of peptides from gDNA in parallel with the lentiviral plasmid library (naïve library) were performed using indexed Illumina PCR primers to incorporate both the Illumina adapter sequences and indexing sequences. […]
# [3] = system: HEK293 cells overexpressing A53T a-syn; assay: Cytotoxicity screen of lentiviral 7-mer peptide library, Alpha syn A53T cells under MG132; assay type: cell-based, human; conditions: for Reads 0 uM MG132 / Reads 10 UM MG132 / Reads 25 UM MG132 / Reads 50 UM MG132: normalized Illumina peptide counts
# From the text: as §1, §2, §3, §4, §5
Substance,Slope Norm Reads [1],Reads 0 uM MG132 [1],Reads 10 UM MG132 [1],Reads 25 UM MG132 [1],Reads Ratio [2],Reads GFP High [2],Reads GFP Inter [2],Reads GFP Neg [2],Slope Norm Reads [3],Reads 0 uM MG132 [3],Reads 10 UM MG132 [3],Reads 25 UM MG132 [3],Reads 50 UM MG132 [3]
"AAYNLCA [7-mer library hit, Alpha Syn screen]",0.07,1,14,19,–,–,–,–,–,–,–,–,–
"CFLFQIQ [7-mer library hit, oligomers screen]",–,–,–,–,45.32,1,0,88,–,–,–,–,–
"CKYRSVL [7-mer library hit, A53T screen]",–,–,–,–,–,–,–,–,1.30,5,7,11,438
"CMVHSAG [7-mer library hit, Alpha Syn screen]",0.08,4,14,33,–,–,–,–,–,–,–,–,–
"DWLMVNL [7-mer library hit, Alpha Syn screen]",0.13,1,13,29,–,–,–,–,–,–,–,–,–
"ECHTKIR [7-mer library hit, oligomers screen]",–,–,–,–,39.21,1,0,76,–,–,–,–,–
"EDVNKCV [7-mer library hit, A53T screen]",–,–,–,–,–,–,–,–,0.68,6,6,13,233
"GAAAGGT [7-mer library hit, Alpha Syn screen]",0.06,1,10,17,–,–,–,–,–,–,–,–,–
"GWTTVRR [7-mer library hit, A53T screen]",–,–,–,–,–,–,–,–,0.94,15,1,29,322
"LKRDQPV [7-mer library hit, oligomers screen]",–,–,–,–,30.30,3,0,118,–,–,–,–,–
"LPASMPC [7-mer library hit, Alpha Syn screen]",0.09,2,16,27,–,–,–,–,–,–,–,–,–
"LPSKIYK [7-mer library hit, oligomers screen]",–,–,–,–,29.53,1,0,57,–,–,–,–,–
"LQVGVAV [7-mer library hit, Alpha Syn screen]",0.09,1,25,23,–,–,–,–,–,–,–,–,–
"LSGECVP [7-mer library hit, Alpha Syn screen]",0.07,3,28,28,–,–,–,–,–,–,–,–,–
"MQMKLSQ [7-mer library hit, oligomers screen]",–,–,–,–,36.15,1,0,70,–,–,–,–,–
"NNQYSFV [7-mer library hit, oligomers screen]",–,–,–,–,30.04,1,0,58,–,–,–,–,–
"PAMQIDG [7-mer library hit, A53T screen]",–,–,–,–,–,–,–,–,0.96,32,20,53,337
"PLPTGMG [7-mer library hit, Alpha Syn screen]",0.08,1,3,20,–,–,–,–,–,–,–,–,–
"QAELSNS [7-mer library hit, A53T screen]",–,–,–,–,–,–,–,–,0.69,6,8,10,235
"QSPSSAW [7-mer library hit, A53T screen]",–,–,–,–,–,–,–,–,0.82,9,45,59,284
"QSVLQQV [7-mer library hit, A53T screen]",–,–,–,–,–,–,–,–,0.82,13,2,12,282
"QSVVTAP [7-mer library hit, A53T screen]",–,–,–,–,–,–,–,–,1.38,8,6,37,465
"QVSVAQQ [7-mer library hit, A53T screen]",–,–,–,–,–,–,–,–,0.69,45,13,120,246
"RAPSCHL [7-mer library hit, Alpha Syn screen]",0.15,1,13,33,–,–,–,–,–,–,–,–,–
"TQKRELT [7-mer library hit, oligomers screen]",–,–,–,–,35.64,1,0,69,–,–,–,–,–
"VYLDILG [7-mer library hit, oligomers screen]",–,–,–,–,30.55,1,0,59,–,–,–,–,–
"WPRYPHI [7-mer library hit, oligomers screen]",–,–,–,–,47.36,1,0,92,–,–,–,–,–
